Data reported in patent US20220213049A1, “S[…]-4-ONE FOR THE TREATMENT AND PROPHYLAXIS OF HEPATITIS B VIRUS INFECTION” (priority 2019, published 2022).

Assays:
[1] = tested on: HBV (extracellular HBsAg) in PHH; assay: Cryopreserved primary human hepatocytes (PHH) HBV infection assay, HBsAg CLIA; format: cell-based; settings: Hepatitis B virus, Hepatocyte, 216 h, read-out: HBsAg IC50
Method: This assay is used to confirm the anti-HBV effect of the compounds in HBV PHH infection assay. Cryopreserved PHH (BioreclamationIVT, Lot YJM) was thawed at 37° C. and gently transferred into pre-warmed InVitroGRO HT medium (BioreclamationIVT, Cat. S03317). The mixture was centrifuged at 70 relative centrifugal force (RCF) for 3 minutes at RT, and the supernatant was discarded. Pre-warmed InVitroGRO CP medium (BioreclamationIVT, Cat #S03316) was added to the cell pellet to gently re-suspend cells. The cells were seeded at the density of 5.8×10^4 cells per well to collagen I coated 96-well plate (Gibco, Cat. A1142803) with the InVitroGRO CP medium. All plates were incubated at 37° C. with 5% CO2 and 85% humidity.
At 20 hours after plating, the medium was changed to PHH culture medium (Dulbecco's Modified Eagle Medium (DMEM)/F12 (1:1) (Gibco, Cat. 11320-033), 10% fetal bovine serum (Gibco Cat. 10099141), 100 U/mL penicillin, 100 μg/mL streptomycin (Gibco, Cat. 151401-122), […] (Invitrogen Cat. PHG0311L), 20 ng/mL dexamethasone (Sigma, Cat. D4902) and 250 ng/mL human recombinant insulin (Gibco, Cat. 12585-014)). And the cells were incubated at 37° C. with 5% CO2 and 85% humidity for 4 hours. The medium was then changed to pre-warmed PHH culture medium containing 4% polyethylene glycol (PEG) MW8000 (Sigma, Cat. P1458-50ML) and 1% DMSO (Sigma, Cat. D2650). 5.8×10^6 genomic equivalents of HBV were added into the medium.
At 24 hours post-infection, the cells were gently washed with PBS and refreshed with PHH culture medium supplemented with 1% DMSO, and 0.25 mg/mL Matrix gel (Corning, Cat. 356237) at 200 μL per well. All plates were immediately placed in at 37° C. CO2 incubator.
24 hours later, serial dilutions of compounds made with DMSO were further diluted with the same culture medium (PHH culture medium supplemented with 1% DMSO and 0.25 mg/mL Matrix gel as described above) before they were added to the cells to reach desired final compound concentrations and 1% DMSO concentration. The medium containing the compounds were refreshed every three days.
At 9 days post-compound treatment, extracellular HBsAg level were measured with Chemiluminescence Immuno Assay (CLIA) kit (Autobio, HBsAg Quantitative CLIA). Extracellular HBV DNA was extracted by MagNA Pure 96 system (Roche) and then determined by quantitative PCR with the following primers and probe: […]
HBsAg IC50 and HBV DNA IC50 values were derived from the dose-response curve using 4 parameter logistic curve fit method. The compounds of formula (I) have HBsAg IC50<20 μM, particularly <1 μM; and HBV DNA IC50<50 μM.

[2] = tested on: HBeAg (surrogate marker for cccDNA) in HepDES19 cells; assay: Engineered HepDES19 primary screen assay (HBeAg ELISA); format: cell-based, HBV; settings: Hepatitis B virus, HepDES19, 120 h, read-out: IC50 (HBeAg level, HepDES19 primary screen assay)
Text: The assay was employed to screen for novel cccDNA inhibitors. HepDES19 is a cccDNA-producing cell line. In this cell line, HBeAg in the cell culture supernatant as surrogate marker, as HBeAg production depends on cccDNA level and activity. HepDES19 is an engineered cell line which contains a 1.1 unit length HBV genome, and pgRNA transcription from the transgene is controlled by Tetracycline (Tet). In the absence of Tet, pgRNA transcription will be induced, but HBV e antigen (HBeAg) could not be produced from this pgRNA due to very short leader sequence before the HBeAg start codon and the start codon is disrupted. Only after cccDNA is formed, the missing leader sequence and start codon mutation would be restored from the 3′-terminal redundancy of pgRNA, and then HBeAg could be synthesized. Therefore, HBeAg could be used as a surrogate marker for cccDNA (Zhou, T. et al., Antiviral Res. (2006), 72(2), 116-124; Guo, H. et al., J. Virol. (2007), 81(22), 12472-12484).
HepDES19 cells were seeded at 2×10^6 cells per T150 flask and cultured with the culture medium (Dulbecco's Modified Eagle Medium: Nutrient Mixture F-12 [DMEM-F12, Gibco Cat. 11320-82], 10% Fetal Bovine Serum [FBS, Clontech Cat. 631101], 0.1 mM Non-Essential Amino Acids Solution [NEAA, Gibco Cat. 11140-050], 50 μg/mL Penicillin-Streptomycin [PS, Invitrogen Cat. 15140-163], 500 μg/mL Geneticin [G418, Invitrogen Cat. 10131-027]) containing 3 μg/mL Tet (Sigma, Cat. 87128) for 5 days. Cells were then seeded at 4×10^6 cells per T150 in the same culture medium as described above in the absence of Tet for 8 days. Cells were then harvested and frozen at density of 2×10^6 cells per ML. For compound testing, the frozen cells were thawed and seeded into 96-well plates at a density of 6×10^4 cells per well. At 24 hours after seeding, half log serial dilutions of compounds made with Dimethyl sulfoxide (DMSO, Sigma, Cat. D2650) were further diluted with the same culture medium as described above before they were added to the cells to reach desired final compound concentrations and 1% DMSO concentration. Plates were then incubated at 37° C. for another 5 days before measurement of HBeAg level and cell viability. Intracellular HBeAg level were measured with enzyme-linked immunosorbent assay (ELISA) kit (Shanghai Kehua Diagnostic Medical Products Co., Ltd). Cell viability was assessed using Cell Counting Kit-8 (DonJindo, Cat. CK04-20). IC50 values were derived from the dose-response curve using 4 parameter logistic curve fit method.
The compounds of the present invention were tested for their capacity to inhibit extracellular HBeAg level as described herein.

Row | SMILES | IC50 [1] [µM] | IC50 [2] [µM]
1 | COc1cc(Br)c(OCCO[C@H]2C[C@@H](C(=O)O)C2)cc1-c1cc(=O)c2cccc(Cl)c2o1 [Example 1, Cis-3-[2-[2-bromo-5-(8-chloro-4-oxo-chromen-2-yl)-4-methoxy-phenoxy]ethoxy]cyclobutanecarboxylic acid] | 8.02 | 3.18
2 | COc1cc(Br)c(OCCC(=O)O)cc1-c1cc(=O)c2cccc(Cl)c2o1 [Example 2, 3-[2-Bromo-5-(8-chloro-4-oxo-chromen-2-yl)-4-methoxy-phenoxy]propanoic acid] | 3.85 | 1.19
3 | COc1cc(Br)c(OC2CC(C(=O)O)C2)cc1-c1cc(=O)c2cccc(Cl)c2o1 (stereo not drawn) [Example 5, 3-[2-Bromo-5-(8-chloro-4-oxo-chromen-2-yl)-4-methoxy-phenoxy]cyclobutanecarboxylic acid] | 4.09 | 6.08
4 | COc1cc(Cl)c(OCCO[C@H]2C[C@@H](C(=O)O)C2)cc1-c1cc(=O)c2cccc(Cl)c2o1 [Example 8, Cis-3-[2-[2-chloro-5-(8-chloro-4-oxo-chromen-2-yl)-4-methoxy-phenoxy]ethoxy]cyclobutanecarboxylic acid] | 5.13 | 1.5
5 | COc1cc(C)c(OCCCOCC(=O)O)cc1-c1cc(=O)c2cccc(Cl)c2o1 [Example 11, 2-[3-[5-(8-Chloro-4-oxo-chromen-2-yl)-4-methoxy-2-methyl-phenoxy]propoxy]acetic acid] | 7.4 | 2.43
6 | Cc1ccc(-c2cc(=O)c3cccc(Cl)c3o2)cc1O[C@H]1C[C@@H](C(=O)O)C1 [Example 15, Cis-3-[5-(8-chloro-4-oxo-chromen-2-yl)-2-methyl-phenoxy]cyclobutanecarboxylic acid] | 1.96 | 0.49
7 | O=C(O)COc1cc(-c2cc(=O)c3cccc(Cl)c3o2)ccc1C(F)(F)F [Example 22, 2-[5-(8-Chloro-4-oxo-chromen-2-yl)-2-(trifluoromethyl)phenoxy]acetic acid] | 6.59 | 0.32
8 | COc1ccc(OCCO[C@H]2C[C@@H](C(=O)O)C2)cc1-c1cc(=O)c2cccc(Cl)c2o1 [Example 31, Cis-3-[2-[3-(8-Chloro-4-oxo-chromen-2-yl)-4-methoxy-phenoxy]ethoxy]cyclobutanecarboxylic acid] | 10.2 | 4.66
9 | COc1c(-c2cc(=O)c3cccc(Cl)c3o2)ccc(Br)c1OC1CC(C(=O)O)C1 (stereo not drawn) [Example 35, 3-[6-Bromo-3-(8-chloro-4-oxo-chromen-2-yl)-2-methoxy-phenoxy]cyclobutanecarboxylic acid] | 3.91 | 0.19
10 | COc1c(-c2cc(=O)c3cccc(Cl)c3o2)ccc(C)c1OC1CC(C(=O)O)C1 (stereo not drawn) [Example 36, 3-[3-(8-Chloro-4-oxo-chromen-2-yl)-2-methoxy-6-methyl-phenoxy]cyclobutanecarboxylic acid] | 9.26 | 3.13
11 | O=C(O)CCOc1cc(-c2cc(=O)c3cccc(Cl)c3o2)c(OC(F)F)cc1Br [Example 40, 3-[2-Bromo-5-(8-chloro-4-oxo-chromen-2-yl)-4-(difluoromethoxy)phenoxy]propanoic acid] | – | 1.39
12 | O=C(O)CCOc1cc(-c2cc(=O)c3cccc(Cl)c3o2)c(F)cc1Br [Example 41, 3-[2-Bromo-5-(8-chloro-4-oxo-chromen-2-yl)-4-fluoro-phenoxy]propanoic acid] | – | 0.133
13 | O=C(O)CCOc1cc(-c2cc(=O)c3cccc(Cl)c3o2)c(OC(F)(F)F)cc1Br [Example 42, 3-[2-Bromo-5-(8-chloro-4-oxo-chromen-2-yl)-4-(trifluoromethoxy)phenoxy]propanoic acid] | – | 2.63
14 | O=C(O)CCOc1cc(-c2cc(=O)c3cccc(Cl)c3o2)c(Cl)cc1Br [Example 43, 3-[2-Bromo-4-chloro-5-(8-chloro-4-oxo-chromen-2-yl)phenoxy]propanoic acid] | – | 11.7
15 | COc1c(-c2cc(=O)c3cccc(Cl)c3o2)ccc(Br)c1OCCCNC(=O)C(=O)O [Example 44, 2-[3-[6-Bromo-3-(8-chloro-4-oxo-chromen-2-yl)-2-methoxy-phenoxy]propylamino]-2-oxo-acetic acid] | – | 1.44
16 | COc1cc(Br)c(OCCNC(=O)C(=O)O)cc1-c1cc(=O)c2cccc(Cl)c2o1 [Example 45, 2-[2-[2-Bromo-5-(8-chloro-4-oxo-chromen-2-yl)-4-methoxy-phenoxy]ethylamino]-2-oxo-acetic acid] | – | 1.4
17 | COc1cc(Br)c(OCCCNC(=O)C(=O)O)cc1-c1cc(=O)c2cccc(Cl)c2o1 [Example 46, 2-[3-[2-Bromo-5-(8-chloro-4-oxo-chromen-2-yl)-4-methoxy-phenoxy]propylamino]-2-oxo-acetic acid] | – | 0.61
